Assay: Effect and timing of food on pharmacokinetics of TAK-390 after a single oral dose of TAK-390MR 90 mg (phase 1, 4-way crossover)
Format: in vivo, human
Details: oral 90 mg dose with a high fat meal
Description: The purpose of this study was to evaluate the effect of food on the pharmacokinetics (PK) and pharmacodynamics (PD) of TAK-390 after a single oral dose of TAK-390 MR 90 mg, made as described in Example 1. This study was a phase 1, open-label, randomized, single-dose, 4-way crossover study conducted at a single center. Healthy adult subjects were randomized on Day 1 of Period 1 to 1 of 4 sequence groups that determined the order in which patients received the 4 different dosing regimens (See, Table 4, below). […] There was a minimum washout interval of at least 5 days between the last dose in a period and the first dose in the subsequent period. […] PK parameters for TAK-390 were estimated using standard noncompartmental methods and include: tlag=time delay between drug administration and first observed concentration above the lower limit of quantitation; tmax=time to reach the observed maximum plasma concentration; Cmax=observed maximum plasma concentration; and AUC=area under the plasma concentration vs time curve from time zero the last quantifiable concentration (AUCt) and from time zero to infinity (AUC∞).

increase in AUC∞: approximately 37% | increase in Cmax: approximately 37%
Structure (SMILES): Cc1c(OCC(F)(F)F)ccnc1C[S@@+]([O-])c1nc2ccccc2[nH]1 [dexlansoprazole]

— patent US8173158B2, “Methods of treating gastrointestinal disorders independent of the intake of food” (Takeda Pharmaceuticals U.S.A., Inc., priority 2007, dated 2012)
